Experimental findings from patent US11207312B2, “Metallo-beta-lactamase inhibitors and methods of use thereof” (priority 2017, dated 2021) are described below.

For one data set, the target named is NDM-1 (Klebsiella pneumoniae, UniProt C7C422). Description: biochemical. In kind it is biochemical. The settings on record: CCF2-FA fluorescence assay, 2 hours at 25° C. The essentials: (§1)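 In 100 mM phosphate pH 7 containing Tween-20 and ZnSO4, NDM-1 (1 pM), IMP-1 (2 pM) or VIM-1 (30 pM) hydrolysed 1.25 μM CCF2-FA over 2 hours at 25° C with inhibitor present. Readout was 405/460 nm fluorescence.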

The subject of data set [1] is P. aeruginosa MB9799 (efflux-, IMP-1 plasmid). Format: cell-based, Pseudomonas aeruginosa. The settings on record: efflux − (MB9799) strain; imipenem at 2 μg/mL; in the presence of a class A, C, D serine β-lactamase inhibitor closely related to relebactam. In short, it runs like this:
(§2)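 PAO1-derived isogenic pair (oprD+, inducible AmpC), efflux+ MB5919 or efflux− MB5890 parent, carrying an electroporated IMP-1 plasmid from a clinical isolate. Microbroth MIC with fixed imipenem and/or ceftazidime (usually CLSI breakpoint) plus fixed class A/C inhibitor; MBL inhibitor serially titrated, concentration restoring susceptibility recorded.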

In the next data set the target is VIM-1 (Pseudomonas aeruginosa (strain ATCC 15692 / DSM 22644 / CIP 104116 / JCM 14847 / LMG 12228 / 1C / PRS 101 / PAO1), UniProt A0A0F7KYQ8). Description: biochemical. To be noted: CCF2-FA fluorescence assay, 2 hours at 25° C.; read-out: VIM1 IC50. In short, it runs like this:
as §1

A further data set deals with IMP-1 (Serratia marcescens, UniProt P52699). Description: biochemical. To be noted: CCF2-FA fluorescence assay, 2 hours at 25° C.; read-out: IMP1 IC50. In short, it runs like this: as §1
Data set [2] deals with P. aeruginosa MB9798 (efflux+, IMP-1 plasmid). To be noted: for MB9798 MITC95 P. aeruginosa uM Efflux WT: efflux + (MB9798) strain, imipenem at 2 μg/mL, in the presence of a class A, C, D serine β-lactamase inhibitor closely related to relebactam; for Efflux ratio: fold difference between efflux+ (MB9798) and efflux− (MB9799) strains. The essentials: as §2
In the next data set the target is VIM-2 (Escherichia coli, UniProt Q5U7L7). Description: biochemical. To be noted: CCF2-FA fluorescence assay; read-out: VIM2 IC50.
The subject of data set [3] is Klebsiella pneumoniae expressing VIM-1 (IHMA599644). Format: cell-based. To be noted: with imipenem 1 μg/ml; 95% inhibition of bacterial growth. The essentials: (§3)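 Each strain, diluted 1:100 from saline suspension into 1.1× CAMHB, was combined with imipenem held at 1 μg/ml and graded inhibitor. Growth after 22–24 h at 35 °C was measured by absorbance, and the lowest concentration achieving 95% inhibition defined MITC95.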

Data set [4] relates to Escherichia coli expressing NDM-1 (CLB30016). In kind it is cell-based. To be noted: with imipenem 1 μg/ml; 95% inhibition of bacterial growth. In short, it runs like this:
as §3

Data set [5] concerns Serratia marcescens expressing IMP-1 (CL5741). Format: cell-based. The settings on record: with imipenem 1 μg/ml; 95% inhibition of bacterial growth. The essentials: as §3

IMP-1, sequence (P52699 whole entry, looked up, species assumed): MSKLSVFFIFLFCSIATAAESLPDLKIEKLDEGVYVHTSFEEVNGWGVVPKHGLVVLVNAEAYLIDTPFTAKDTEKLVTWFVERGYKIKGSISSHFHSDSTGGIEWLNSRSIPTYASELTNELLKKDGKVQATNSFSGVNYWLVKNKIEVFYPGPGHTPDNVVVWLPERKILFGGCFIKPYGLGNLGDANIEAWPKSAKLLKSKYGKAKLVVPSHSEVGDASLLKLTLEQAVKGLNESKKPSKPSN
NDM-1, sequence (C7C422 whole entry, looked up, species assumed): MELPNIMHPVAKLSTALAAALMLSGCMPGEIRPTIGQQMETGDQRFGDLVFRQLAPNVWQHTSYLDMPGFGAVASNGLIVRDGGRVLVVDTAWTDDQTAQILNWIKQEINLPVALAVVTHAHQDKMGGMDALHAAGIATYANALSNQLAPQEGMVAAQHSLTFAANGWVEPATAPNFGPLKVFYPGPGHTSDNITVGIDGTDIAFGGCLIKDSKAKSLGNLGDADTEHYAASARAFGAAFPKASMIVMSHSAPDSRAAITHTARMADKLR

Regarding `NC[C@@H](O)CNS(=O)(=O)c1ccc(N2CCN3CCOCC3C2)c(-c2nn[nH]n2)c1S(N)(=O)=O` (stereo partly drawn) [Example 129, N1-((R)-3-amino-2-hydroxypropyl)-4-(hexahydropyrazino [2,1-c][1,4]oxazin-8(1H)-yl)-3-(2H-tetrazol-5-yl)benzene-1,2-disulfonamide 2,2,2-trifluoroacetate], the concentration for half-maximal inhibition (IC50) was 2.7 nM against NDM-1, 3.53 nM at VIM-1, 4.72 nM on IMP-1 and 6.44 nM on VIM-2. Besides, the “MB9799 MITC95 P. aeruginosa uM Efflux Mutant” value in data set [1] came out at 3.13 µM. In addition, the “MB9798 MITC95 P. aeruginosa uM Efflux WT” value in data set [2] was determined as 6.25 µM. In addition, in [2], the Efflux ratio worked out at 2.00. Further, the “IHMA599644 K. pneumoniae MITC95 VIM” value in data set [3] was found to be 12.50 µM. In addition, in data set [4], the “CLB30016 E. coli MITC95 NDM” value was 6.25 µM. In addition, in [5], the “CL5741 S. marcescens MITC95 IMP” value was found to be 3.13 µM.
As for `CN(CCO)CCN(C)c1ccc(S(=O)(=O)NC[C@H](O)CN)c(S(N)(=O)=O)c1-c1nn[nH]n1` [Example 136, (R)—N1-(3-amino-2-hydroxypropyl)-4-((2-((2-hydroxyethyl)(methyl)amino)ethyl)(methyl)amino)-3-(2H-tetrazol-5-yl)benzene-1,2-disulfonamide], the concentration for half-maximal inhibition (IC50) against NDM-1 turned out to be 200 nM; on VIM-1, 14.2 nM; on IMP-1, 200 nM; at VIM-2, 27.4 nM. Also, in data set [1], the “MB9799 MITC95 P. aeruginosa uM Efflux Mutant” value is 12.50 µM. In data set [2], the “MB9798 MITC95 P. aeruginosa uM Efflux WT” value turned out to be 50.00 µM. For the same compound, in data set [2], the Efflux ratio is 4.00. Besides, the “IHMA599644 K. pneumoniae MITC95 VIM” value in [3] is 1.56 µM. Also, the “CLB30016 E. coli MITC95 NDM” value in [4] was found to be 3.13 µM. In data set [5], the “CL5741 S. marcescens MITC95 IMP” value was found to be 12.50 µM.
Turning to `NS(=O)(=O)c1c(S(=O)(=O)N[C@@H]2CCNC2)ccc(NCCN2CCOCC2)c1-c1nnn[nH]1` [Example 64, 4-[(2-morpholin-4-ylethyl)amino]-N1-[(3R)-pyrrolidin-3-yl]-3-(1H-tetrazol-5-yl)benzene-1,2-disulfonamide], the IC50 at NDM-1 was 5.51 nM; on VIM-1 it was 1.62 nM; on IMP-1, 3.26 nM; at VIM-2 it was 8.19 nM. In data set [1], the “MB9799 MITC95 P. aeruginosa uM Efflux Mutant” value was found to be 1.56 µM. The “MB9798 MITC95 P. aeruginosa uM Efflux WT” value in [2] came out at 25.00 µM. For the same compound, the Efflux ratio in data set [2] is on record as 15.99. In addition, the “IHMA599644 K. pneumoniae MITC95 VIM” value in data set [3] was 6.25 µM. For the same compound, the “CLB30016 E. coli MITC95 NDM” value in data set [4] came to 1.56 µM. For the same compound, in data set [5], the “CL5741 S. marcescens MITC95 IMP” value is 1.56 µM.
On to `NC[C@@H](O)CNS(=O)(=O)c1ccc(N2CCC[C@@H](NCCO)C2)c(-c2nn[nH]n2)c1S(N)(=O)=O` [Example 130, N1-((R)-3-amino-2-hydroxypropyl)-4-((R)-3-((2-hydroxyethyl)amino)piperidin-1-yl)-3-(2H-tetrazol-5-yl)benzene-1,2-disulfonamide bis(2,2,2-trifluoroacetate)], for which the IC50 at NDM-1 came to 32 nM; at VIM-1 it was 4.21 nM; on IMP-1, 128 nM; at VIM-2, 5.47 nM. Further, in data set [1], the “MB9799 MITC95 P. aeruginosa uM Efflux Mutant” value was 3.13 µM. The “MB9798 MITC95 P. aeruginosa uM Efflux WT” value in [2] amounted to 12.50 µM. Besides, the Efflux ratio in data set [2] is recorded as 4.00. Also, the “IHMA599644 K. pneumoniae MITC95 VIM” value in data set [3] stood at 1.56 µM. Also, the “CLB30016 E. coli MITC95 NDM” value in data set [4] came out at 0.78 µM. Besides, the “CL5741 S. marcescens MITC95 IMP” value in data set [5] was determined as 3.13 µM.
With `NS(=O)(=O)c1c(S(=O)(=O)C2CNC2)ccc(N2CCN(CCO)CC2)c1-c1nnn[nH]1` [Example 54, 6-(azetidin-3-ylsulfonyl)-3-[4-(2-hydroxyethyl)piperazin-1-yl]-2-(1H-tetrazol-5-yl)benzenesulfonamide], the IC50 against NDM-1 amounted to 16.7 nM; on VIM-1, 66.1 nM; on IMP-1, 21.9 nM; on VIM-2, 69.5 nM. The “MB9799 MITC95 P. aeruginosa uM Efflux Mutant” value in data set [1] came out at 1.56 µM. In addition, the “MB9798 MITC95 P. aeruginosa uM Efflux WT” value in data set [2] came to 6.25 µM. Further, in data set [2], the Efflux ratio amounted to 4.00. Besides, the “IHMA599644 K. pneumoniae MITC95 VIM” value in data set [3] was 6.25 µM. Besides, in [4], the “CLB30016 E. coli MITC95 NDM” value was determined as 0.39 µM. Also, the “CL5741 S. marcescens MITC95 IMP” value in data set [5] was determined as 0.39 µM.
For `NC[C@@H](O)CNS(=O)(=O)c1ccc(N2CCC3CNCC3C2)c(-c2nnn[nH]2)c1S(N)(=O)=O` (stereo partly drawn) [Example 141, N1-((R)-3-amino-2-hydroxypropyl)-4-(hexahydro-1H-pyrrolo[3,4-c]pyridin-5(6H)-yl)-3-(1H-tetrazol-5-yl)benzene-1,2-disulfonamide], the IC50 against NDM-1 worked out at 15.8 nM; at VIM-1, 0.43 nM; on IMP-1 it was 11.9 nM; on VIM-2 it was 15.7 nM. In data set [1], the “MB9799 MITC95 P. aeruginosa uM Efflux Mutant” value is 1.56 µM. In addition, in data set [2], the “MB9798 MITC95 P. aeruginosa uM Efflux WT” value is 6.25 µM. For the same compound, in data set [2], the Efflux ratio turned out to be 4.00. The “IHMA599644 K. pneumoniae MITC95 VIM” value in [3] amounted to 1.56 µM. Moreover, the “CLB30016 E. coli MITC95 NDM” value in data set [4] was 1.56 µM. The “CL5741 S. marcescens MITC95 IMP” value in [5] came out at 1.56 µM.
As to `NCC(CN)NS(=O)(=O)c1ccc(N2CCC(CO)CC2)c(-c2nnn[nH]2)c1S(N)(=O)=O` [Example 45, N1-(1,3-diaminopropan-2-yl)-4-(4-(hydroxymethyl)piperidin-1-yl)-3-(1H-tetrazol-5-yl)benzene-1,2-disulfonamide], the IC50 came to 0.27 nM on NDM-1, 0.23 nM on VIM-1, 0.52 nM at IMP-1 and 0.74 nM at VIM-2. For the same compound, in data set [1], the “MB9799 MITC95 P. aeruginosa uM Efflux Mutant” value was 1.56 µM. In [2], the “MB9798 MITC95 P. aeruginosa uM Efflux WT” value was 1.56 µM. In addition, the Efflux ratio in [2] stood at 1.00. Besides, the “IHMA599644 K. pneumoniae MITC95 VIM” value in data set [3] amounted to 3.13 µM. Further, the “CLB30016 E. coli MITC95 NDM” value in data set [4] came out at 1.56 µM. The “CL5741 S. marcescens MITC95 IMP” value in data set [5] turned out to be 3.13 µM.
As for `NC[C@@H](O)CNS(=O)(=O)c1ccc(N2CCN(CCO)C(=O)C2)c(-c2nn[nH]n2)c1S(N)(=O)=O` [Example 146, (R)-N1-(3-amino-2-hydroxypropyl)-4-(4-(2-hydroxyethyl)-3-oxopiperazin-1-yl)-3-(2H-tetrazol-5-yl)benzene-1,2-disulfonamide], the IC50 is 2.32 nM against NDM-1, 0.31 nM at VIM-1, 2.25 nM on IMP-1 and 1.77 nM on VIM-2. For the same compound, the “MB9799 MITC95 P. aeruginosa uM Efflux Mutant” value in [1] is 1.56 µM. For the same compound, the “MB9798 MITC95 P. aeruginosa uM Efflux WT” value in data set [2] is 1.56 µM. Further, the Efflux ratio in data set [2] worked out at 1.00. For the same compound, in [3], the “IHMA599644 K. pneumoniae MITC95 VIM” value amounted to 6.25 µM. Further, the “CLB30016 E. coli MITC95 NDM” value in data set [4] was found to be 1.56 µM. Besides, in data set [5], the “CL5741 S. marcescens MITC95 IMP” value came out at 3.13 µM.
Regarding `NC[C@@H](O)CNS(=O)(=O)c1ccc(N2CCC(C(N)CO)CC2)c(-c2nn[nH]n2)c1S(N)(=O)=O` (mixture of isomers) [Example 182, 4-(4-(1-Amino-2-hydroxyethyl)piperidin-1-yl)-N1-((R)-3-amino-2-hydroxypropyl)-3-(2H-tetrazol-5-yl)benzene-1,2-disulfonamide], the IC50 against NDM-1 stood at 3.77 nM; at VIM-1 it was 0.27 nM; at IMP-1 it was 4 nM; on VIM-2, 3.82 nM. In [1], the “MB9799 MITC95 P. aeruginosa uM Efflux Mutant” value was 0.78 µM. Besides, in data set [2], the “MB9798 MITC95 P. aeruginosa uM Efflux WT” value worked out at 0.78 µM. In addition, the Efflux ratio in data set [2] is 1.00. In addition, in [3], the “IHMA599644 K. pneumoniae MITC95 VIM” value stood at 1.56 µM. Besides, the “CLB30016 E. coli MITC95 NDM” value in data set [4] was determined as 0.39 µM. Also, the “CL5741 S. marcescens MITC95 IMP” value in data set [5] was 0.78 µM.
In the case of `C[C@H](CN)NS(=O)(=O)c1ccc(N2CCC(CN)CC2)c(-c2nnn[nH]2)c1S(N)(=O)=O` [Example 36, (R)-4-(4-(aminomethyl)piperidin-1-yl)-N1-(1-aminopropan-2-yl)-3-(1H-tetrazol-5-yl)benzene-1,2-disulfonamide], the IC50 is 0.45 nM against NDM-1, 0.1 nM at VIM-1, 1.84 nM on IMP-1 and 2.6 nM at VIM-2. For the same compound, the “MB9799 MITC95 P. aeruginosa uM Efflux Mutant” value in data set [1] amounted to 0.65 µM. Also, in data set [2], the “MB9798 MITC95 P. aeruginosa uM Efflux WT” value was 0.91 µM. In data set [2], the Efflux ratio was determined as 1.40. In addition, the “IHMA599644 K. pneumoniae MITC95 VIM” value in [3] was determined as 1.30 µM. The “CLB30016 E. coli MITC95 NDM” value in [4] worked out at 0.65 µM. Further, in data set [5], the “CL5741 S. marcescens MITC95 IMP” value was found to be 1.30 µM.
